Data published in patent US20040242498A1, “CXCR3 antagonists” (priority 2003, published 2004).
Entries after “also recorded” stand apart in the source; their conditions may differ.

What was measured:
[1] = Excretion of compound 101 and metabolites in urine and bile of bile duct cannulated rats; type: in vivo, Sprague Dawley rat; conditions: bile duct cannulated male rats
Experimental: In addition, compound 101 was administered intravenously or orally to bile duct cannulated male Sprague Dawley rats. Urine and bile samples were collected over a period of 24 hours and analyzed by liquid chromatography/mass spectrometry. Compound 101 was detected in a small amount (<1% of the administered dose) in urine and in bile. In urine, compound 103, the pyridyl-N-oxide of compound 101, was detected. Five metabolites, compounds 103, 105, 107, 109 and 111, were all detected in bile excretions; compound 111 was detected in a trace amount in bile. A proposed metabolic pathway for compound 101 is provided at FIG. 3.
Overall, N-oxidation and O-deethylation occurred to similar extents. The O-deethyl metabolite was detected mainly as a glucuronide conjugate, compound 109. […] Only trace amounts of the glucuronide of the N-oxidized O-deethyl metabolite, compound […], were detected. The detected metabolites, and the relative amounts thereof, in urine and bile agree with the metabolites detected with rat liver microsomal fractions and rat hepatocytes in vitro as discussed above.

[2] = Metabolites of compound 101 with rat liver microsomal fractions; type: in vitro ADME, Sprague Dawley rat; conditions: formed from compound 101 (10 μM), 105 min
Experimental: (§1) Compound 101 was contacted with microsomal fractions from Sprague Dawley rat, dog (beagle), rhesus monkey and human liver to detect and identify resulting metabolites. In particular, Compound 101 in PBS (10 μM) was incubated in a mixture of microsomal protein (1 mg/mL), EDTA (1.0 mM) and NADPH (5 mM) at 37° C. for a total of 105 min. The reaction was stopped by the addition of acetonitrile containing 0.2% formic acid (400 μL). Samples were centrifuged and the supernatant was subjected to LCMS analysis.
(§2) Compound 103, the pyridyl-N-oxide product of compound 101, was detected following contact with the microsomal fractions from all species. Compound 105, the deethylation product of compound 101, was also detected following contact with the microsomal fractions from all species. […] With human microsomal fractions, an amount of compound 107, the deethylation and pyridyl-N-oxide product of compound 101, was also detected.

[3] = Metabolites of compound 101 with dog liver microsomal fractions and hepatocytes; type: in vitro ADME, dog (beagle); conditions: formed from compound 101; liver microsomal fractions (10 μM, 105 min) or cryopreserved hepatocytes
Experimental: as §1, §2
(§3) Compound 101 was also incubated with intact dog and monkey liver cells (cryopreserved hepatocytes). Following incubation, the formation of compound 109, the glucuronide adduct of compound 105, was detected.

[4] = Metabolites of compound 101 with rhesus monkey liver microsomal fractions and hepatocytes; type: in vitro ADME; conditions: formed from compound 101; liver microsomal fractions (10 μM, 105 min) or cryopreserved hepatocytes
Experimental: as §1, §2, §3

[5] = Metabolites of compound 101 with human liver microsomal fractions; type: in vitro ADME; conditions: formed from compound 101 (10 μM), microsomal protein 1 mg/mL, NADPH, 37° C., 105 min, LCMS
Experimental: as §1, §2

[6] = system: any cytochrome p450 isoform, including 3A4; test: Inhibition or induction of cytochrome p450 isoforms by compound 101; type: in vitro ADME, human
[7] = after compound 101 intravenously or orally, 24 hours, LC/MS
[8] = compound 101 intravenously or orally, 24 hours collection

| Detection in bile [1, 7] | Metabolic Forms of Compound 101: Rat (in vivo), excreta in which detected [1, 8] | Metabolic Forms of Compound 101: Dog [3] | Metabolic Forms of Compound 101: Monkey [4] | Metabolic Forms of Compound 101: Human [5] | Detection in urine [1, 7] | Inhibition or induction of cytochrome p450 isoforms [6] | Amount detected in urine and in bile, of the administered dose (Rat in vivo) [1, 8] [%] | SMILES | Metabolic Forms of Compound 101: Rat (in vitro) [2] |
| --- | --- | --- | --- | --- | --- | --- | --- | --- | --- |
| trace amount | bile (traces) | – | – | – | – | – | – | C[C@H](c1nc2ncccc2c(=O)n1-c1ccc(OC2OC(C(=O)O)C(O)C(O)C2O)cc1)N(Cc1ccc[n+]([O-])c1)C(=O)Cc1ccc(OC(F)(F)F)cc1 (stereo partly shown) [Compound 111] | – |
| detected | bile | detected; also recorded: minor | detected; also recorded: minor | detected; also recorded: minor | – | – | – | C[C@H](c1nc2ncccc2c(=O)n1-c1ccc(O)cc1)N(Cc1cccnc1)C(=O)Cc1ccc(OC(F)(F)F)cc1 [Compound 105] | approximately equal amounts; also recorded: major |
| detected; also recorded: trace amounts | bile | detected; also recorded: minor | detected; also recorded: minor | – | – | – | – | C[C@H](c1nc2ncccc2c(=O)n1-c1ccc(OC2OC(C(=O)O)C(O)C(O)C2O)cc1)N(Cc1cccnc1)C(=O)Cc1ccc(OC(F)(F)F)cc1 (stereo partly shown) [Compound 109] | – |
| – | – | – | – | – | – | little or no inhibition or induction | <1 | CCOc1ccc(-n2c([C@@H](C)N(Cc3cccnc3)C(=O)Cc3ccc(OC(F)(F)F)cc3)nc3ncccc3c2=O)cc1 [Compound 101] | – |

| SMILES | Detection in bile [1, 7] | Metabolic Forms of Compound 101: Rat (in vivo), excreta in which detected [1, 8] | Metabolic Forms of Compound 101: Dog [3] | Metabolic Forms of Compound 101: Monkey [4] | Metabolic Forms of Compound 101: Human [5] | Detection in urine [1, 7] | Inhibition or induction of cytochrome p450 isoforms [6] | Amount detected in urine and in bile, of the administered dose (Rat in vivo) [1, 8] [%] | Metabolic Forms of Compound 101: Rat (in vitro) [2] |
| --- | --- | --- | --- | --- | --- | --- | --- | --- | --- |
| CCOc1ccc(-n2c([C@@H](C)N(Cc3ccc[n+]([O-])c3)C(=O)Cc3ccc(OC(F)(F)F)cc3)nc3ncccc3c2=O)cc1 [Compound 103] | detected | urine & bile | more compound 103 than compound 105; also recorded: major | more compound 103 than compound 105; also recorded: major | more compound 103 than compound 105; also recorded: major | detected | – | – | approximately equal amounts; also recorded: major |
| C[C@H](c1nc2ncccc2c(=O)n1-c1ccc(O)cc1)N(Cc1ccc[n+]([O-])c1)C(=O)Cc1ccc(OC(F)(F)F)cc1 [Compound 107] | detected; also recorded: significant amounts | bile | – | minor | detected; also recorded: minor | – | – | – | – |
